In patent publication US7666890B2, “Synthesis and herbicidal activity of 1- (2-substituted benzo[d]thiazol-5-yl)-1H-1,2,4-triazol-5(4H)-one derivatives” (Huazhong Normal University, priority 2007, dated 2010):

What was measured:
Test in all cases: Test of herbicidal activities (greenhouse pot method)
Format in all cases: in vivo
Details in all cases: single dose 300 g ai./h, treated before/after germination, 15 days later, greenhouse pot
Digiatria sanguinalis = test system: Digiatria sanguinalis
Experimental: (§1) Garden soil was collected from regions where no pesticide is used and mixed uniformly with mountain soil and organic humus soil at a volume ratio of 1:1:1.
(§2) Multiple flowerpots each having a diameter of 9.5 cm and a depth of 8 cm were filled with the soil mixture to 3/4 volume. After water was added to the soil and the soil was completely wet, seeds of three grass weeds and three broadleaf weeds were inserted into the flowerpots (10-15 seeds for each weed). After seeding, the seeds were covered with fine oil mixed with sand and having a thickness of 1-3 cm. After the soil absorbed enough water and became saturated, excess water at the bottom of the flowerpot was drained, and the seeds were placed in a greenhouse for growth.
(§3) The weeds were watered every day so as to keep relative humidity of the soil at approximately 80%, growing temperature of 15-30° C., and air humidity above 50%. As the grass weeds grew to a 2-leaf stage and the broadleaf weeds was in a leaf period, spraying operation […] was performed on the stems and leafs. Planting before germination was performed before spraying. Soil processing was performed before the seeds of the weeds emerged.
(§4) Six target weeds comprising three grass weeds: Echinochloa crusgalli, Digiatria sanguinalis, Setaria viridis, along with three broadleaf weeds: Brassica juncea, Amaranthus retroflexus, Chenopodium album were treated before/after germination using a so-called “greenhouse pot” method with a single dose. A treating dose was 300 g ai./h. The process was repeated three times, and a blank control was used.
(§5) A 3WPSHZ-500 type automatic spraying tower with a spraying area of 0.132 m^2, a spray volume of 10 mL, working pressure of 0.2 MPa, and a liquid volume of 40% of maximum was used. After treatment, the weeds were placed in a greenhouse at a temperature of 15-30° C. Reaction symptoms of the weeds were regularly observed, and 15 days later, five reaction levels were determined according to the following inhibition intervals: 90≦A≦100%; 80≦B<90%, 60≦C<80%; 50≦D<60%, E<50%.

Brassica juncea = test system: Brassica juncea
Experimental: as §1, §2, §3, §4, §5

Setaria viridis = test system: Setaria viridis
Experimental: as §1, §2, §3, §4, §5

Amaranthus retroflexus = test system: Amaranthus retroflexus
Experimental: as §1, §2, §3, §4, §5

Chenopodium album = test system: Chenopodium album
Experimental: as §1, §2, §3, §4, §5

Echinochloa crusgalli = test system: Echinochloa crusgalli
Experimental: as §1, §2, §3, §4, §5

Structure (SMILES) | Herbicidal activity Digiatria sanguinalis (inhibition level) (Digiatria sanguinalis) | Herbicidal activity Brassica juncea (inhibition level) (Brassica juncea) | Herbicidal activity Setaria viridis (inhibition level) (Setaria viridis) | Herbicidal activity Amaranthus retroflexus (inhibition level) (Amaranthus retroflexus) | Herbicidal activity Chenopodium album (inhibition level) (Chenopodium album) | Herbicidal activity Echinochloa crusgalli (inhibition level) (Echinochloa crusgalli)
Cc1nn(-c2cc3nc(SCc4ccc(Cl)nc4)sc3cc2Cl)c(=O)n1C(F)F [Compound 1] | B (80 ≦ B < 90%) | B (80 ≦ B < 90%) | D (50 ≦ D < 60%) | A (90 ≦ A ≦ 100%) | C (60 ≦ C < 80%) | B (80 ≦ B < 90%)
Cc1nn(-c2cc3nc(SCc4ccccc4)sc3cc2Cl)c(=O)n1C(F)F [Compound 2] | C (60 ≦ C < 80%) | B (80 ≦ B < 90%) | B (80 ≦ B < 90%) | A (90 ≦ A ≦ 100%) | E (E < 50%) | C (60 ≦ C < 80%)
Cc1nn(-c2cc3nc(SCc4ccccc4Cl)sc3cc2Cl)c(=O)n1C(F)F [Compound 3] | C (60 ≦ C < 80%) | C (60 ≦ C < 80%) | E (E < 50%) | B (80 ≦ B < 90%) | E (E < 50%) | E (E < 50%)
Cc1nn(-c2cc3nc(SCc4cccc(Cl)c4)sc3cc2Cl)c(=O)n1C(F)F [Compound 4] | E (E < 50%) | E (E < 50%) | C (60 ≦ C < 80%) | B (80 ≦ B < 90%) | C (60 ≦ C < 80%) | C (60 ≦ C < 80%)
Cc1nn(-c2cc3nc(SCc4ccc(Cl)cc4)sc3cc2Cl)c(=O)n1C(F)F [Compound 5] | B (80 ≦ B < 90%) | B (80 ≦ B < 90%) | E (E < 50%) | A (90 ≦ A ≦ 100%) | E (E < 50%) | C (60 ≦ C < 80%)
Cc1nn(-c2cc3nc(SCc4ccc(Br)cc4)sc3cc2Cl)c(=O)n1C(F)F [Compound 6] | E (E < 50%) | C (60 ≦ C < 80%) | C (60 ≦ C < 80%) | B (80 ≦ B < 90%) | B (80 ≦ B < 90%) | B (80 ≦ B < 90%)
Cc1nn(-c2cc3nc(SCc4cccc(F)c4)sc3cc2Cl)c(=O)n1C(F)F [Compound 7] | B (80 ≦ B < 90%) | C (60 ≦ C < 80%) | B (80 ≦ B < 90%) | B (80 ≦ B < 90%) | E (E < 50%) | E (E < 50%)
Cc1nn(-c2cc3nc(SCc4ccc(F)cc4F)sc3cc2Cl)c(=O)n1C(F)F [Compound 8] | B (80 ≦ B < 90%) | C (60 ≦ C < 80%) | C (60 ≦ C < 80%) | C (60 ≦ C < 80%) | C (60 ≦ C < 80%) | E (E < 50%)
Cc1nn(-c2cc3nc(SCc4c(F)cccc4F)sc3cc2Cl)c(=O)n1C(F)F [Compound 9] | B (80 ≦ B < 90%) | A (90 ≦ A ≦ 100%) | E (E < 50%) | B (80 ≦ B < 90%) | C (60 ≦ C < 80%) | B (80 ≦ B < 90%)
Cc1nn(-c2cc3nc(SCc4csc(Cl)n4)sc3cc2F)c(=O)n1C(F)F [Compound 10] | C (60 ≦ C < 80%) | A (90 ≦ A ≦ 100%) | C (60 ≦ C < 80%) | B (80 ≦ B < 90%) | C (60 ≦ C < 80%) | B (80 ≦ B < 90%)
Cc1nn(-c2cc3nc(SCc4ccccc4)sc3cc2F)c(=O)n1C(F)F [Compound 11] | B (80 ≦ B < 90%) | A (90 ≦ A ≦ 100%) | C (60 ≦ C < 80%) | B (80 ≦ B < 90%) | C (60 ≦ C < 80%) | E (E < 50%)
Cc1nn(-c2cc3nc(SCc4ccc(F)cc4F)sc3cc2F)c(=O)n1C(F)F [Compound 12] | B (80 ≦ B < 90%) | C (60 ≦ C < 80%) | B (80 ≦ B < 90%) | A (90 ≦ A ≦ 100%) | E (E < 50%) | E (E < 50%)
Cc1nn(-c2cc3nc(SCc4cccc([N+](=O)[O-])c4)sc3cc2F)c(=O)n1C(F)F [Compound 13] | B (80 ≦ B < 90%) | B (80 ≦ B < 90%) | C (60 ≦ C < 80%) | A (90 ≦ A ≦ 100%) | C (60 ≦ C < 80%) | C (60 ≦ C < 80%)
Cc1ccccc1CSc1nc2cc(-n3nc(C)n(C(F)F)c3=O)c(F)cc2s1 [Compound 14] | C (60 ≦ C < 80%) | A (90 ≦ A ≦ 100%) | C (60 ≦ C < 80%) | B (80 ≦ B < 90%) | C (60 ≦ C < 80%) | B (80 ≦ B < 90%)
Cc1ccc(CSc2nc3cc(-n4nc(C)n(C(F)F)c4=O)c(F)cc3s2)cc1 [Compound 15] | C (60 ≦ C < 80%) | A (90 ≦ A ≦ 100%) | B (80 ≦ B < 90%) | A (90 ≦ A ≦ 100%) | B (80 ≦ B < 90%) | B (80 ≦ B < 90%)
Cc1ccc([N+](=O)[O-])c(CSc2nc3cc(-n4nc(C)n(C(F)F)c4=O)c(F)cc3s2)c1 [Compound 16] | C (60 ≦ C < 80%) | B (80 ≦ B < 90%) | B (80 ≦ B < 90%) | C (60 ≦ C < 80%) | C (60 ≦ C < 80%) | C (60 ≦ C < 80%)
COc1cccc(CSc2nc3cc(-n4nc(C)n(C(F)F)c4=O)c(F)cc3s2)c1 [Compound 17] | E (E < 50%) | A (90 ≦ A ≦ 100%) | B (80 ≦ B < 90%) | A (90 ≦ A ≦ 100%) | B (80 ≦ B < 90%) | C (60 ≦ C < 80%)
Cc1nn(-c2cc3nc(SCc4ccccc4F)sc3cc2F)c(=O)n1C(F)F [Compound 18] | A (90 ≦ A ≦ 100%) | B (80 ≦ B < 90%) | B (80 ≦ B < 90%) | A (90 ≦ A ≦ 100%) | C (60 ≦ C < 80%) | C (60 ≦ C < 80%)
Cc1nn(-c2cc3nc(SCc4cccc(F)c4)sc3cc2F)c(=O)n1C(F)F [Compound 19] | B (80 ≦ B < 90%) | B (80 ≦ B < 90%) | C (60 ≦ C < 80%) | A (90 ≦ A ≦ 100%) | A (90 ≦ A ≦ 100%) | E (E < 50%)
